In patent US20230111310A1, “CARBOXYLIC ACID DERIVATIVE-SUBSTITUTED IMINO ARYL COMPOUND, PREPARATION METHOD THEREFOR, HERBICIDAL COMPOSITION AND USE THEREOF” (Qingdao Kingagroot Chemical Compound Co., Ltd., priority 2020, published 2023):

The compounds below were run on Echinochloa crusgalli (assay: Weeding effect in post-emergence stage). Conditions: Dose 15 g/ha; level of fresh weight growth control rate.
Assay type: in vivo
Summary of the method: (§1)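 Doses of 500, 250, 125, 60, 30, 15 and 7.5 g/ha, with methyl oleate synergist (1.5 liter/ha) and Tween 80 from acetone solution, applied by spray tower post-emergence (2–3 leaf stage). Weed control scored after 3 further greenhouse weeks, averaged over triplicates.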

Compound | Weeding effect in post-emergence stage, Echinochloa crusgalli
C/C(=N\OC(=O)[C@@H](C)O/N=C/c1cc(-n2c(=O)cc(C(F)(F)F)n(C)c2=O)c(F)cc1Cl)C(C)C [250(R)] | 5 (Level 5: growth control rate is above 85%)
CCC(CC)=NOC(=O)[C@@H](C)O/N=C/c1cc(-n2c(=O)cc(C(F)(F)F)n(C)c2=O)c(F)cc1Cl [251(R)] | 5 (Level 5: growth control rate is above 85%)
CCO/C(C)=N/OC(=O)[C@@H](C)O/N=C/c1cc(-n2c(=O)cc(C(F)(F)F)n(C)c2=O)c(F)cc1Cl [252(R)] | 5 (Level 5: growth control rate is above 85%)
CCOC(=O)C(C)=NOC(=O)C(C)ON=Cc1cc(-n2c(=O)cc(C(F)(F)F)n(C)c2=O)c(F)cc1Cl [254(R)] | 5 (Level 5: growth control rate is above 85%)
C[C@@H](O/N=C/c1cc(-n2c(=O)cc(C(F)(F)F)n(C)c2=O)c(F)cc1Cl)C(=O)Oc1ccccc1 [262(R)] | 5 (Level 5: growth control rate is above 85%)
C[C@@H](O/N=C/c1cc(-n2c(=O)cc(C(F)(F)F)n(C)c2=O)c(F)cc1Cl)C(=O)OCc1ccccc1F [284(R)] | 5 (Level 5: growth control rate is above 85%)
C[C@@H](O/N=C/c1cc(-n2c(=O)cc(C(F)(F)F)n(C)c2=O)c(F)cc1Cl)C(=O)OCc1cccnc1 [302(R)] | 5 (Level 5: growth control rate is above 85%)

What follows are compounds tested on Digitaria sanguinalis (assay: Weeding effect in post-emergence stage). Conditions: Dose 15 g/ha; level of fresh weight growth control rate.
Assay type: in vivo
Summary of the method: as §1

Compound | Weeding effect in post-emergence stage, Digitaria sanguinalis
C/C(=N\OC(=O)[C@@H](C)O/N=C/c1cc(-n2c(=O)cc(C(F)(F)F)n(C)c2=O)c(F)cc1Cl)C(C)C [250(R)] | 5 (Level 5: growth control rate is above 85%)
CCC(CC)=NOC(=O)[C@@H](C)O/N=C/c1cc(-n2c(=O)cc(C(F)(F)F)n(C)c2=O)c(F)cc1Cl [251(R)] | 5 (Level 5: growth control rate is above 85%)
CCO/C(C)=N/OC(=O)[C@@H](C)O/N=C/c1cc(-n2c(=O)cc(C(F)(F)F)n(C)c2=O)c(F)cc1Cl [252(R)] | 5 (Level 5: growth control rate is above 85%)
CCOC(=O)C(C)=NOC(=O)C(C)ON=Cc1cc(-n2c(=O)cc(C(F)(F)F)n(C)c2=O)c(F)cc1Cl [254(R)] | 5 (Level 5: growth control rate is above 85%)
C[C@@H](O/N=C/c1cc(-n2c(=O)cc(C(F)(F)F)n(C)c2=O)c(F)cc1Cl)C(=O)Oc1ccccc1 [262(R)] | 5 (Level 5: growth control rate is above 85%)
C[C@@H](O/N=C/c1cc(-n2c(=O)cc(C(F)(F)F)n(C)c2=O)c(F)cc1Cl)C(=O)OCc1ccccc1F [284(R)] | 5 (Level 5: growth control rate is above 85%)
C[C@@H](O/N=C/c1cc(-n2c(=O)cc(C(F)(F)F)n(C)c2=O)c(F)cc1Cl)C(=O)OCc1cccnc1 [302(R)] | 5 (Level 5: growth control rate is above 85%)

What follows are compounds tested on Setaria viridis (assay: Weeding effect in post-emergence stage). Conditions: Dose 15 g/ha; level of fresh weight growth control rate.
Assay type: in vivo
Summary of the method: as §1

Compound | Weeding effect in post-emergence stage, Setaria viridis
C/C(=N\OC(=O)[C@@H](C)O/N=C/c1cc(-n2c(=O)cc(C(F)(F)F)n(C)c2=O)c(F)cc1Cl)C(C)C [250(R)] | 5 (Level 5: growth control rate is above 85%)
CCC(CC)=NOC(=O)[C@@H](C)O/N=C/c1cc(-n2c(=O)cc(C(F)(F)F)n(C)c2=O)c(F)cc1Cl [251(R)] | 5 (Level 5: growth control rate is above 85%)
CCO/C(C)=N/OC(=O)[C@@H](C)O/N=C/c1cc(-n2c(=O)cc(C(F)(F)F)n(C)c2=O)c(F)cc1Cl [252(R)] | 5 (Level 5: growth control rate is above 85%)
CCOC(=O)C(C)=NOC(=O)C(C)ON=Cc1cc(-n2c(=O)cc(C(F)(F)F)n(C)c2=O)c(F)cc1Cl [254(R)] | 5 (Level 5: growth control rate is above 85%)
C[C@@H](O/N=C/c1cc(-n2c(=O)cc(C(F)(F)F)n(C)c2=O)c(F)cc1Cl)C(=O)Oc1ccccc1 [262(R)] | 5 (Level 5: growth control rate is above 85%)
C[C@@H](O/N=C/c1cc(-n2c(=O)cc(C(F)(F)F)n(C)c2=O)c(F)cc1Cl)C(=O)OCc1ccccc1F [284(R)] | 5 (Level 5: growth control rate is above 85%)
C[C@@H](O/N=C/c1cc(-n2c(=O)cc(C(F)(F)F)n(C)c2=O)c(F)cc1Cl)C(=O)OCc1cccnc1 [302(R)] | 5 (Level 5: growth control rate is above 85%)

Each compound was assayed on Eleusine indica (assay: Weeding effect in post-emergence stage). Conditions: Dose 15 g/ha; level of fresh weight growth control rate.
Assay type: in vivo
Summary of the method: as §1

Compound | Weeding effect in post-emergence stage, Eleusine indica
C/C(=N\OC(=O)[C@@H](C)O/N=C/c1cc(-n2c(=O)cc(C(F)(F)F)n(C)c2=O)c(F)cc1Cl)C(C)C [250(R)] | 5 (Level 5: growth control rate is above 85%)
CCC(CC)=NOC(=O)[C@@H](C)O/N=C/c1cc(-n2c(=O)cc(C(F)(F)F)n(C)c2=O)c(F)cc1Cl [251(R)] | 5 (Level 5: growth control rate is above 85%)
CCO/C(C)=N/OC(=O)[C@@H](C)O/N=C/c1cc(-n2c(=O)cc(C(F)(F)F)n(C)c2=O)c(F)cc1Cl [252(R)] | 5 (Level 5: growth control rate is above 85%)
CCOC(=O)C(C)=NOC(=O)C(C)ON=Cc1cc(-n2c(=O)cc(C(F)(F)F)n(C)c2=O)c(F)cc1Cl [254(R)] | 5 (Level 5: growth control rate is above 85%)
C[C@@H](O/N=C/c1cc(-n2c(=O)cc(C(F)(F)F)n(C)c2=O)c(F)cc1Cl)C(=O)Oc1ccccc1 [262(R)] | 5 (Level 5: growth control rate is above 85%)
C[C@@H](O/N=C/c1cc(-n2c(=O)cc(C(F)(F)F)n(C)c2=O)c(F)cc1Cl)C(=O)OCc1ccccc1F [284(R)] | 5 (Level 5: growth control rate is above 85%)
C[C@@H](O/N=C/c1cc(-n2c(=O)cc(C(F)(F)F)n(C)c2=O)c(F)cc1Cl)C(=O)OCc1cccnc1 [302(R)] | 5 (Level 5: growth control rate is above 85%)

The compounds below were run on Alopecurus japonicus (assay: Weeding effect in post-emergence stage). Conditions: Dose 15 g/ha; level of fresh weight growth control rate.
Assay type: in vivo
Summary of the method: as §1

Compound | Weeding effect in post-emergence stage, Alopecurus japonicus
C/C(=N\OC(=O)[C@@H](C)O/N=C/c1cc(-n2c(=O)cc(C(F)(F)F)n(C)c2=O)c(F)cc1Cl)C(C)C [250(R)] | 5 (Level 5: growth control rate is above 85%)
CCC(CC)=NOC(=O)[C@@H](C)O/N=C/c1cc(-n2c(=O)cc(C(F)(F)F)n(C)c2=O)c(F)cc1Cl [251(R)] | 5 (Level 5: growth control rate is above 85%)
CCO/C(C)=N/OC(=O)[C@@H](C)O/N=C/c1cc(-n2c(=O)cc(C(F)(F)F)n(C)c2=O)c(F)cc1Cl [252(R)] | 5 (Level 5: growth control rate is above 85%)
CCOC(=O)C(C)=NOC(=O)C(C)ON=Cc1cc(-n2c(=O)cc(C(F)(F)F)n(C)c2=O)c(F)cc1Cl [254(R)] | 5 (Level 5: growth control rate is above 85%)
C[C@@H](O/N=C/c1cc(-n2c(=O)cc(C(F)(F)F)n(C)c2=O)c(F)cc1Cl)C(=O)Oc1ccccc1 [262(R)] | 5 (Level 5: growth control rate is above 85%)
C[C@@H](O/N=C/c1cc(-n2c(=O)cc(C(F)(F)F)n(C)c2=O)c(F)cc1Cl)C(=O)OCc1ccccc1F [284(R)] | 5 (Level 5: growth control rate is above 85%)
C[C@@H](O/N=C/c1cc(-n2c(=O)cc(C(F)(F)F)n(C)c2=O)c(F)cc1Cl)C(=O)OCc1cccnc1 [302(R)] | 5 (Level 5: growth control rate is above 85%)

What follows are compounds tested on Abutilon theophrasti (assay: Weeding effect in post-emergence stage). Conditions: Dose 15 g/ha; level of fresh weight growth control rate.
Assay type: in vivo
Summary of the method: as §1

Compound | Weeding effect in post-emergence stage, Abutilon theophrasti
C/C(=N\OC(=O)[C@@H](C)O/N=C/c1cc(-n2c(=O)cc(C(F)(F)F)n(C)c2=O)c(F)cc1Cl)C(C)C [250(R)] | 5 (Level 5: growth control rate is above 85%)
CCC(CC)=NOC(=O)[C@@H](C)O/N=C/c1cc(-n2c(=O)cc(C(F)(F)F)n(C)c2=O)c(F)cc1Cl [251(R)] | 5 (Level 5: growth control rate is above 85%)
CCO/C(C)=N/OC(=O)[C@@H](C)O/N=C/c1cc(-n2c(=O)cc(C(F)(F)F)n(C)c2=O)c(F)cc1Cl [252(R)] | 5 (Level 5: growth control rate is above 85%)
CCOC(=O)C(C)=NOC(=O)C(C)ON=Cc1cc(-n2c(=O)cc(C(F)(F)F)n(C)c2=O)c(F)cc1Cl [254(R)] | 5 (Level 5: growth control rate is above 85%)
C[C@@H](O/N=C/c1cc(-n2c(=O)cc(C(F)(F)F)n(C)c2=O)c(F)cc1Cl)C(=O)Oc1ccccc1 [262(R)] | 5 (Level 5: growth control rate is above 85%)
C[C@@H](O/N=C/c1cc(-n2c(=O)cc(C(F)(F)F)n(C)c2=O)c(F)cc1Cl)C(=O)OCc1ccccc1F [284(R)] | 5 (Level 5: growth control rate is above 85%)
C[C@@H](O/N=C/c1cc(-n2c(=O)cc(C(F)(F)F)n(C)c2=O)c(F)cc1Cl)C(=O)OCc1cccnc1 [302(R)] | 5 (Level 5: growth control rate is above 85%)
